≈ marks a conversion by molar mass, not a printed value.
How the values were obtained:
[1] = system: Pseudomonas aeruginosa PAM 1154; experiment: MIC broth microdilution, P. aeruginosa PAM 1154 (OprM::Hg); assay type: cell-based; settings: P. aeruginosa PAM 1154 OprM::Hg
[2] = system: Pasteurella multocida pm002; experiment: MIC broth microdilution, P. multocida pm002 (wild type); assay type: cell-based
[3] = system: Mycobacterium tuberculosis TN913; experiment: MIC agar dilution, M. tuberculosis TN913; assay type: cell-based
[4] = system: Pseudomonas aeruginosa PAM 1323; experiment: MIC broth microdilution, P. aeruginosa PAM 1323 (medium level UPA resistance); assay type: cell-based
[5] = system: Streptococcus pneumoniae ATCC 49619; experiment: MIC broth microdilution, S. pneumoniae ATCC 49619; assay type: cell-based; settings: ATCC 49619, CAMHB containing 4% lysed horse blood
Procedure: (§1) In a second panel, Table 5, compounds of this invention were tested for their antimicrobial activity against the bacterial strains H. influenzae hf032 and S. pneumoniae ATCC 49629.
(§2) As above, a broth microdilution assay was used but the culture media were varied according to the specific growth requirements of each bacteria according to the recommendations of the NCCLS. For instance, susceptibility testing for H, influenzae was performed using Haemophilus test medium (HTM-Remel, cat. #20-042). For S. pneumoniae, cation adjusted MHB (CAMHB) containing 4% lysed horse blood was used. MICs were determined as described above.

[6] = system: Staphylococcus aureus ATCC 29213; experiment: MIC broth microdilution, S. aureus ATCC 29213 (wild type); assay type: cell-based; settings: S. aureus ATCC 29213
[7] = system: Pseudomonas aeruginosa PAM 1135; experiment: MIC broth microdilution, P. aeruginosa PAM 1135 (high level UPA resistance); assay type: cell-based; settings: P. aeruginosa PAM 1135 UPA1^r
[8] = system: Escherichia Coli MC 4100 AcrAB UPA3r; experiment: MIC broth microdilution, E. coli MC 4100 AcrAB UPA3r (ΔAcrAB, UPA resistant); assay type: cell-based; settings: E. coli AcrAB UPA3^r
[9] = system: Staphylococcus aureus 8325-4; experiment: MIC broth microdilution, S. aureus 8325-4 (wild type); assay type: cell-based; settings: S. aureus 8325-4
[10] = system: Pseudomonas aeruginosa PAM 1020; experiment: MIC broth microdilution, P. aeruginosa PAM 1020 (wild type); assay type: cell-based; settings: P. aeruginosa PAM 1020
[11] = system: Haemophilus influenzae hf032; experiment: MIC broth microdilution, H. influenzae hf032; assay type: cell-based; settings: strain hf032, Haemophilus test medium
Procedure: as §1, §2

Escherichia Coli MC 4100 = experiment: MIC broth microdilution, E. coli MC 4100 (wild type); assay type: cell-based; settings: E. coli MC 4100
[12] = system: Mycobacterium tuberculosis H37Rv; experiment: MIC agar dilution, M. tuberculosis H37Rv; assay type: cell-based
[13] = system: Escherichia Coli MC 4100 AcrAB; experiment: MIC broth microdilution, E. coli MC 4100 AcrAB (ΔAcrAB); assay type: cell-based; settings: E. coli AcrAB
E. coli translocase = E. coli translocase (Escherichia coli, UniProt P0A6W3); settings: species of enzyme not given
bacteria = experiment: Antibacterial activity, stated in words; assay type: cell-based

E. coli translocase, sequence (P0A6W3 whole entry): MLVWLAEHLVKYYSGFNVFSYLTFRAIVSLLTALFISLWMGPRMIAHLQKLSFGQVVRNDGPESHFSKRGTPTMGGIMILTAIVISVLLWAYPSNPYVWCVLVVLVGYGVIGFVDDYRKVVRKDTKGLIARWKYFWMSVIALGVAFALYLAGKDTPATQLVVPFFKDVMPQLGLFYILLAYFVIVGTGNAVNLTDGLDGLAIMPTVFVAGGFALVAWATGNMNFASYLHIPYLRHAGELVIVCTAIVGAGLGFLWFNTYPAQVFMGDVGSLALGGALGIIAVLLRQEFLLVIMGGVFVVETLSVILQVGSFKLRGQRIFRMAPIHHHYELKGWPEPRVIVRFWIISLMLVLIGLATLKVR

Compound	MIC (μg/ml) Broth microdilution [1] [µg/mL]	MIC (μg/ml) Broth microdilution [2] [µg/mL]	MIC TN913 (SENSITIVE) [3] [µg/mL]	MIC (μg/ml) Broth microdilution [4] [µg/mL]	MIC Broth microdilution S. pneumoniae [5] [µg/mL]	MIC (μg/ml) Broth microdilution [6] [µg/mL]	MIC (μg/ml) Broth microdilution [7] [µg/mL]	MIC (μg/ml) Broth microdilution [8] [µg/mL]	MIC (μg/ml) Broth microdilution [9] [µg/mL]	MIC (μg/ml) Broth microdilution [10] [µg/mL]	MIC Broth microdilution H. influenzae [11] [µg/mL]	MIC (μg/ml) Broth microdilution (Escherichia Coli MC 4100) [µg/mL]	MIC H37RV (SENSITIVE) [12] [µg/mL]	MIC (μg/ml) Broth microdilution [13] [µg/mL]	inhibition of translocase I (in words) (E. coli translocase)	antibacterial / biological activity (in words) (bacteria)
CSCCC(NC(=O)NC(Cc1ccc(O)cc1)C(=O)O)C(=O)NC(C(=O)NCC1CC(O)C(n2ccc(=O)[nH]c2=O)O1)C(C)N(C)C(=O)C(C)N [Compound 115, 1-[5′[(2S,3S)-N^3-L-Alanyl-N^2-[N-[[(1S)-1-carboxy-4-hydroxyphenethyl)-carbamoyl]-L-methionyl]-N^3-methyl-2,3-diaminobutyramido]-3′,5′-dideoxy-α-L-arabinofuranosyl]uracil]	2 (≈ 2.66 µM)	128 (≈ 170 µM)	>30	256 (≈ 341 µM)	>512	>512	>512	32 (≈ 42.6 µM)	>512	4 (≈ 5.33 µM)	16 (≈ 21.3 µM)	>512	>30	8 (≈ 10.7 µM)		
Tetrahydropacidamycin D [Compound 4]	4					>512	512	64	>512	8		256		2	inhibited translocase I	exhibited antibacterial activity
